Assay results published in patent US20210070748A1, “INHIBITORS OF BRUTONS TYROSINE KINASE” (Pharmacyclics LLC, priority 2015, published 2021).
pIC50: −log10 of the molar value.

Tests used:
Format in all cases: biochemical
[1] = molecular target: LCK (Homo sapiens, UniProt P06239); test: Inhibition of a panel of kinases, in vitro HotSpot kinase assay: LCK; details: D-compounds panel data; 1 μM ATP; read-out: IC50 LCK
[2] = molecular target: T1, BTK-WT (Homo sapiens, UniProt Q06187); test: Btk in vitro inhibitory activity (one of Method A TR-FRET, Method B electrophoretic mobility shift, Method C radiometric filter binding); details: D-compounds panel data; read-out: IC50 BTK-WT
T1 construct: purified from insect cells as a full-length construct containing an N-terminal 6X-His tag; His6 (N); made in house; host or cells: insect cells (baculovirus Sf21 in Method B)
T1 sequence (Q06187 whole entry): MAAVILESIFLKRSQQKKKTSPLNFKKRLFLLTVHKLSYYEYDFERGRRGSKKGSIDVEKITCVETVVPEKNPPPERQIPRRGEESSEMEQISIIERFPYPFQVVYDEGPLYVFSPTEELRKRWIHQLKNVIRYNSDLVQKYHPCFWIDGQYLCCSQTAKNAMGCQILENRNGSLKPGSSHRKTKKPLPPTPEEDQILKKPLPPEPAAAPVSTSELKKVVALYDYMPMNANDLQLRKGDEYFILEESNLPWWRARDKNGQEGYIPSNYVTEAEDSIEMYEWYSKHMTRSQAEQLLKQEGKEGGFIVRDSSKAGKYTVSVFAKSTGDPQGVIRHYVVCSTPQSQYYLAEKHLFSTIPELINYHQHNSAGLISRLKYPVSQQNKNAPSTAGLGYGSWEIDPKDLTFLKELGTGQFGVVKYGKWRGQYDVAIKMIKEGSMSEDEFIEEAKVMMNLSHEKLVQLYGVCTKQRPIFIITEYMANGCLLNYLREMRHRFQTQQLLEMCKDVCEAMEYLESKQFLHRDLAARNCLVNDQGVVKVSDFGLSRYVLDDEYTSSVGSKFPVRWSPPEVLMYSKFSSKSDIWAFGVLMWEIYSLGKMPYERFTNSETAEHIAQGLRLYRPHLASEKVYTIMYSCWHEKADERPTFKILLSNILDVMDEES

[3] = molecular target: SRC (Homo sapiens, UniProt P12931); test: Inhibition of a panel of kinases, in vitro HotSpot kinase assay: SRC; details: D-compounds panel data; 1 μM ATP
Chain of SRC (P12931 whole entry): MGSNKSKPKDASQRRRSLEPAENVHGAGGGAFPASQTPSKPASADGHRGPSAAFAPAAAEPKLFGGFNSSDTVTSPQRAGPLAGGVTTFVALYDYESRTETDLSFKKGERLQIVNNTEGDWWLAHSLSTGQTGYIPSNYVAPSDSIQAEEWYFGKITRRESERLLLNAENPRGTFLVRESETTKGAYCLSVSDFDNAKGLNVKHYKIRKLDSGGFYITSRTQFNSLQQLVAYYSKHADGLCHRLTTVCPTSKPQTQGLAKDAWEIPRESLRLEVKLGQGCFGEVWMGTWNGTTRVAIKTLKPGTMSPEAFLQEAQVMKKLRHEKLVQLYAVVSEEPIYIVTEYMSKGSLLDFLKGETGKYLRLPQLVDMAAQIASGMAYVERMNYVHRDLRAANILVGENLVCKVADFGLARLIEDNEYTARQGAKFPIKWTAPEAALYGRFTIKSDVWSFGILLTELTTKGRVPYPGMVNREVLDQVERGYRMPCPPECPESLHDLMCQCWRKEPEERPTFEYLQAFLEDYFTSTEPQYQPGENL
Description: The degree of inhibition of a panel of kinases is determined using the in vitro HotSpot kinase assay (purified enzymes, ^33P-ATP, an appropriate substrate and 1 μM ATP).

[4] = molecular target: T2, JAK3 (Homo sapiens, UniProt P52333); test: Inhibition of a panel of kinases, in vitro HotSpot kinase assay: JAK3; details: D-compounds panel data; 1 μM ATP; read-out: IC50 JAK3
T2 sequence (P52333 1-1124): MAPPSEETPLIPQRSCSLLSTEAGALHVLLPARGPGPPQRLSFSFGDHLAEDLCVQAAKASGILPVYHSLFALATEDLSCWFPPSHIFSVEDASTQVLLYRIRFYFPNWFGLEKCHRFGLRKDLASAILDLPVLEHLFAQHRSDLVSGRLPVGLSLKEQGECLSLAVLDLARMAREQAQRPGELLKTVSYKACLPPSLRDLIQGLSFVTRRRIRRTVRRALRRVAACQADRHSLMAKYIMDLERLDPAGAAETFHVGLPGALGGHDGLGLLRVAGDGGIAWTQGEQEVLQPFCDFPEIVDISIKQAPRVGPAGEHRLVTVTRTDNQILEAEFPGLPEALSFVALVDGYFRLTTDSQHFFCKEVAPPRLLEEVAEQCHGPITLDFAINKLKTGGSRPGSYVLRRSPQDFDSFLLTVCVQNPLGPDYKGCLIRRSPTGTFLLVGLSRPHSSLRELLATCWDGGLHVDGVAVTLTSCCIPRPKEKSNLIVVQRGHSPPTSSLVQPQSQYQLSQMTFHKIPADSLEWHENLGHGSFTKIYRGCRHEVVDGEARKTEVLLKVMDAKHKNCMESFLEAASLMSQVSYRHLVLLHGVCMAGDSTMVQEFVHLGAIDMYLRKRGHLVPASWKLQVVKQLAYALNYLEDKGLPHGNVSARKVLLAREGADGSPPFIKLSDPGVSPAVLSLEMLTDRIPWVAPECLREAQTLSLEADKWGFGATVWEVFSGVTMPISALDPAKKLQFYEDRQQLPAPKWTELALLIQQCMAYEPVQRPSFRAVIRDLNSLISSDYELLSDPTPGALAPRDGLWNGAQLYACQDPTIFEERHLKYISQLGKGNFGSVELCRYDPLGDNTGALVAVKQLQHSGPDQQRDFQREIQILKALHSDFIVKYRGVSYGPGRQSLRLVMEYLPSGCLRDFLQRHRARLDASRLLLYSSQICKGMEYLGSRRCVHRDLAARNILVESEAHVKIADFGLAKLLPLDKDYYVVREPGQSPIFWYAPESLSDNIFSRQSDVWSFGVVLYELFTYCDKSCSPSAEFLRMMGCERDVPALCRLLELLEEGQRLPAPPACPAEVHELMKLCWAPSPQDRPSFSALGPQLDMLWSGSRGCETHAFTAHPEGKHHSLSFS

Chain of LCK (P06239 whole entry): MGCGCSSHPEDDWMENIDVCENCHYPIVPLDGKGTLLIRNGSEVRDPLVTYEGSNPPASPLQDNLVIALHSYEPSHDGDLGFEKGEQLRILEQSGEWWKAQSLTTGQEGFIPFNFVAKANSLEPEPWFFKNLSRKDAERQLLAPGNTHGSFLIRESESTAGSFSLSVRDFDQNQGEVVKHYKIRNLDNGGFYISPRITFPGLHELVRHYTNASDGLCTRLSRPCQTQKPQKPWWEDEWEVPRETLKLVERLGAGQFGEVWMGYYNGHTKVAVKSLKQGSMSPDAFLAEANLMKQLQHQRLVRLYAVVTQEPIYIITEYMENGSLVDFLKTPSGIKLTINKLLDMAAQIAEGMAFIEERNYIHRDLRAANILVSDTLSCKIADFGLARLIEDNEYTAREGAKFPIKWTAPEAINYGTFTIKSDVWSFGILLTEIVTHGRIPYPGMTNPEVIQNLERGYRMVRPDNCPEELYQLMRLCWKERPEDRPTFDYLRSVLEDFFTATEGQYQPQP

C[C@@H]1[C@H](NC(=O)c2cc(C3CC3)n(C)n2)CCCN1c1cnc(C(N)=O)c(Nc2cnn(C)c2)n1 [Example D-253, 5-[(2R,3R)-3-(5-cyclopropyl-1-methyl-1H-pyrazole-3-amido)-2-methylpiperidin-1-yl]-3-[(1-methyl-1H-pyrazol-4-yl)amino]pyrazine-2-carboxamide]
pIC50 [1]: 6.00 to 7.00 | pIC50 [2]: ≥ 8.00 | pIC50 [3]: 7.00 to 8.00 | pIC50 [4]: 6.00 to 7.00

C[C@@H]1[C@H](NC(=O)c2ccc3c(cnn3C)c2)CCCN1c1cnc(C(N)=O)c(Nc2cnn(C)c2)n1 [Example D-254, N-[(2R,3R)-1-{5-carbamoyl-6-[(1-methyl-1H-pyrazol-4-yl)amino]pyrazin-2-yl}-2-methylpiperidin-3-yl]-1-methyl-1H-indazole-5-carboxamide]
pIC50 [1]: 6.00 to 7.00 | pIC50 [2]: ≥ 8.00 | pIC50 [3]: 7.00 to 8.00 | pIC50 [4]: 5.00 to 6.00

CC(C)n1nnc2cc(C(=O)N[C@@H]3CCCN(c4cnc(C(N)=O)c(Nc5cnn(C)c5)n4)[C@@H]3C)ccc21 [Example D-255, N-[(2R,3R)-1-{5-carbamoyl-6-[(1-methyl-i H-pyrazol-4-yl)amino]pyrazin-2-yl}-2-methylpiperidin-3-yl]-1-(propan-2-yl)-1H-1,2,3-benzotriazole-5-carboxamide]
pIC50 [1]: 6.00 to 7.00 | pIC50 [2]: ≥ 8.00 | pIC50 [3]: 7.00 to 8.00 | pIC50 [4]: 6.00 to 7.00

C[C@@H]1[C@H](NC(=O)c2coc(C3CC3)n2)CCCN1c1cnc(C(N)=O)c(Nc2cnn(C)c2)n1 [Example D-257, 5-[(2R,3R)-3-(2-cyclopropyl-1,3-oxazole-4-amido)-2-methylpiperidin-1-yl]-3-[(1-methyl-1H-pyrazol-4-yl)amino]pyrazine-2-carboxamide]
pIC50 [1]: 7.00 to 8.00 | pIC50 [2]: ≥ 8.00 | pIC50 [3]: 7.00 to 8.00 | pIC50 [4]: 6.00 to 7.00

C[C@@H]1[C@H](NC(=O)c2ccc3c(c2)CCC(C)(C)O3)CCCN1c1cnc(C(N)=O)c(Nc2cnn(C)c2)n1 [Example D-258, 5-[(2R,3R)-3-(2,2-dimethyl-3,4-dihydro-2H-1-benzopyran-6-amido)-2-methylpiperidin-1-yl]-3-[(1-methyl-1H-pyrazol-4-yl)amino]pyrazine-2-carboxamide]
pIC50 [1]: 6.00 to 7.00 | pIC50 [2]: ≥ 8.00 | pIC50 [3]: 7.00 to 8.00 | pIC50 [4]: 5.00 to 6.00

C[C@@H]1[C@H](NC(=O)c2ccc3cnn(C)c3c2)CCCN1c1cnc(C(N)=O)c(Nc2cnn(C)c2)n1 [Example D-259, N-[(2R,3R)-1-{5-carbamoyl-6-[(1-methyl-1H-pyrazol-4-yl)amino]pyrazin-2-yl}-2-methylpiperidin-3-yl]-1-methyl-1H-indazole-6-carboxamide]
pIC50 [1]: 7.00 to 8.00 | pIC50 [2]: ≥ 8.00 | pIC50 [3]: 7.00 to 8.00 | pIC50 [4]: 5.00 to 6.00

C[C@@H]1[C@H](NC(=O)c2ccc(C3(CO)CC3)cc2)CCCN1c1cnc(C(N)=O)c(Nc2cnn(C)c2)n1 [Example D-260, 5-[(2R,3R)-3-{4-[1-(hydroxymethyl)cyclopropyl]benzamido}-2-methylpiperidin-1-yl]-3-[(1-methyl-1H-pyrazol-4-yl)amino]pyrazine-2-carboxamide]
pIC50 [1]: 7.00 to 8.00 | pIC50 [2]: ≥ 8.00 | pIC50 [3]: 7.00 to 8.00 | pIC50 [4]: 5.00 to 6.00

Cc1nc2cc(C(=O)N[C@@H]3CCCN(c4cnc(C(N)=O)c(Nc5cnn(C)c5)n4)[C@@H]3C)ccc2[nH]1 [Example D-261, N-[(2R,3R)-1-{5-carbamoyl-6-[(1-methyl-1H-pyrazol-4-yl)amino]pyrazin-2-yl}-2-methylpiperidin-3-yl]-2-methyl-1H-1,3-benzodiazole-5-carboxamide]
pIC50 [1]: 7.00 to 8.00 | pIC50 [2]: ≥ 8.00 | pIC50 [3]: 7.00 to 8.00 | pIC50 [4]: 5.00 to 6.00

C[C@@H]1[C@H](NC(=O)c2ccc3[nH]cnc3c2)CCCN1c1cnc(C(N)=O)c(Nc2cnn(C)c2)n1 [Example D-262, N-[(2R,3R)-1-{5-carbamoyl-6-[(1-methyl-1H-pyrazol-4-yl)amino]pyrazin-2-yl}-2-methylpiperidin-3-yl]-1H-1,3-benzodiazole-5-carboxamide]
pIC50 [1]: 7.00 to 8.00 | pIC50 [2]: ≥ 8.00 | pIC50 [3]: 7.00 to 8.00 | pIC50 [4]: 5.00 to 6.00

C[C@@H]1[C@H](NC(=O)c2cc3n(n2)CCC3)CCCN1c1cnc(C(N)=O)c(Nc2cnn(C)c2)n1 [Example D-263, 3-[(1-methyl-1H-pyrazol-4-yl)amino]-5-[(2R,3R)-2-methyl-3-{4H,5H,6H-pyrrolo[1,2-b]pyrazole-2-amido}piperidin-1-yl]pyrazine-2-carboxamide]
pIC50 [1]: 7.00 to 8.00 | pIC50 [2]: ≥ 8.00 | pIC50 [3]: 7.00 to 8.00 | pIC50 [4]: 5.00 to 6.00

C[C@@H]1[C@H](NC(=O)c2c[nH]c(C3CC3)n2)CCCN1c1cnc(C(N)=O)c(Nc2cnn(C)c2)n1 [Example D-264, 5-[(2R,3R)-3-(2-cyclopropyl-1H-imidazole-4-amido)-2-methylpiperidin-1-yl]-3-[(1-methyl-1H-pyrazol-4-yl)amino]pyrazine-2-carboxamide]
pIC50 [1]: 7.00 to 8.00 | pIC50 [2]: ≥ 8.00 | pIC50 [3]: 7.00 to 8.00 | pIC50 [4]: 5.00 to 6.00

C[C@@H]1[C@H](NC(=O)c2ccc3nccn3c2)CCCN1c1cnc(C(N)=O)c(Nc2cnn(C)c2)n1 [Example D-266, 5-[(2R,3R)-3-(imidazo[1,2-a]pyridine-6-amido)-2-methylpiperidin-1-yl]-3-[(1-methyl-1H-pyrazol-4-yl)amino]pyrazine-2-carboxamide]
pIC50 [1]: 7.00 to 8.00 | pIC50 [2]: ≥ 8.00 | pIC50 [3]: 7.00 to 8.00 | pIC50 [4]: 5.00 to 6.00

C[C@@H]1[C@H](NC(=O)c2ccc3nn(C)cc3c2)CCCN1c1cnc(C(N)=O)c(Nc2cnn(C)c2)n1 [Example D-267, N-[(2R,3R)-1-{5-carbamoyl-6-[(1-methyl-1H-pyrazol-4-yl)amino]pyrazin-2-yl}-2-methylpiperidin-3-yl]-2-methyl-2H-indazole-5-carboxamide]
pIC50 [1]: 7.00 to 8.00 | pIC50 [2]: ≥ 8.00 | pIC50 [3]: 7.00 to 8.00 | pIC50 [4]: 5.00 to 6.00

C[C@@H]1[C@H](NC(=O)c2ccc(C(N)=O)cc2)CCCN1c1cnc(C(N)=O)c(Nc2cnn(C)c2)n1 [Example D-268, 1-N-[(2R,3R)-1-{5-carbamoyl-6-[(1-methyl-1H-pyrazol-4-yl)amino]pyrazin-2-yl}-2-methylpiperidin-3-yl]benzene-1,4-dicarboxamide]
pIC50 [1]: 7.00 to 8.00 | pIC50 [2]: ≥ 8.00 | pIC50 [3]: 7.00 to 8.00 | pIC50 [4]: 5.00 to 6.00

COCCN(C)Cc1cc(Nc2nc(N3CCC[C@@H](NC(=O)c4ccc(C5CC5)cc4)[C@H]3C)cnc2C(N)=O)sn1 [Example D-269, 5-[(2R,3R)-3-(4-cyclopropylbenzamido)-2-methylpiperidin-1-yl]-3-[(3-{[(2-methoxyethyl)(methyl)amino]methyl}-1,2-thiazol-5-yl)amino]pyrazine-2-carboxamide]
pIC50 [1]: 6.00 to 7.00 | pIC50 [2]: ≥ 8.00 | pIC50 [3]: 7.00 to 8.00 | pIC50 [4]: 5.00 to 6.00

COCCn1cc(Nc2nc(N3CCC[C@@H](NC(=O)c4ccc(C5CC5)cc4)[C@H]3C)cnc2C(N)=O)cn1 [Example D-270, 5-[(2R,3R)-3-(4-cyclopropylbenzamido)-2-methylpiperidin-1-yl]-3-{[1-(2-methoxyethyl)-1H-pyrazol-4-yl]amino}pyrazine-2-carboxamide]
pIC50 [1]: 6.00 to 7.00 | pIC50 [2]: ≥ 8.00 | pIC50 [3]: 6.00 to 7.00 | pIC50 [4]: 5.00 to 6.00

Cc1c(Nc2nc(N3CCC[C@@H](NC(=O)c4ccc(C5CC5)cc4)[C@H]3C)cnc2C(N)=O)cnn1C [Example D-271, 5-[(2R,3R)-3-(4-cyclopropylbenzamido)-2-methylpiperidin-1-yl]-3-[(1,5-dimethyl-1H-pyrazol-4-yl)amino]pyrazine-2-carboxamide]
pIC50 [1]: 5.00 to 6.00 | pIC50 [2]: 7.00 to 8.00 | pIC50 [3]: 5.00 to 6.00 | pIC50 [4]: < 5.00

Cc1nn(C)cc1Nc1nc(N2CCC[C@@H](NC(=O)c3ccc(C4CC4)cc3)[C@H]2C)cnc1C(N)=O [Example D-272, 5-[(2R,3R)-3-(4-cyclopropylbenzamido)-2-methylpiperidin-1-yl]-3-[(1,3-dimethyl-1H-pyrazol-4-yl)amino]pyrazine-2-carboxamide]
pIC50 [1]: < 5.00 | pIC50 [2]: 7.00 to 8.00 | pIC50 [3]: < 5.00 | pIC50 [4]: < 5.00
